Reference: patent US9045390B2, “Haloalkylmethyleneoxyphenyl-substituted ketoenols” (Bayer CropScience AG, priority 2009, dated 2015)
Read-outs that look alike come from different tables or passages of the source.

Assays:
[1] = system: cereals; assay: Container trials with cereals in a greenhouse, mefenpyr 1 day before herbicide application; type: in vivo
Experimental: (§1) Seeds of monocotyledonous and dicotyledonous weed and crop plants are placed in sandy loam in wood fibre pots, covered with soil and cultivated in a greenhouse under good growth conditions. Two to three weeks after sowing, the test plants are treated at the one-leaf stage. The test compounds, formulated as wettable powders (WP), are sprayed onto the green parts of the plants in different dosages with a water application rate of 600 l/ha (converted), with 0.2% added wetting agent. After the test plants have been kept in the greenhouse under optimal growth conditions for about three weeks, the effect of the preparations is assessed visually by comparison to untreated controls (herbicidal effect in per cent: 100% effect=the plants have died, 0% effect=like control plants).
(§2) If there is to be an additional test as to whether safeners can improve the plant compatibility of test substances in the case of crop plants, the following options are used for applying the safeners: • Seeds of the crop plants are, before sowing, dressed with safener substance (the amount of safener stated in per cent, based on the weight of the seed) • Before the application of the test substances, the crop plants are sprayed with the safener at a certain application rate per hectare (usually one day before the application of the test substances) • The safener is applied together with the test substance as a tankmix (the amount of safener is stated in g/ha or as a ratio, based on the herbicide).
Container Trials with Cereals in a Greenhouse
Mefenpyr 1 Day Before Herbicide Application

[2] = system: Maize (Aventura); assay: Container tests with maize-soya-cotton in a greenhouse, cyprosulfamide 1 day before herbicide application; type: in vivo
Experimental: as §1, §2
(§3) Container Tests with Maize-Soya-Cotton in a Greenhouse
(§4) Cyprosulfamide 1 Day Before Herbicide Application

[3] = system: cereals; assay: Container trials with cereals in a greenhouse, mefenpyr 1 day before herbicide application; type: in vivo; details: 10 days after application, 12.5 g a.i./ha
[4] = system: green peach aphid (Myzus persicae); assay: Myzus test (MYZUPE spray treatment); type: in vivo; details: application rate 20 g/ha, Chinese cabbage leaf discs
Experimental: Myzus Test (MYZUPE Spray Treatment)
To prepare an appropriate active ingredient preparation, 1 part by weight of active ingredient is mixed with the stated amounts of solvent and emulsifier, and the concentrate is diluted with emulsifier-containing water to the desired concentration.
Discs of Chinese cabbage (Brassica pekinensis) infected by all stages of the green peach aphid (Myzus persicae) are sprayed with an active ingredient preparation of the desired concentration.
After the desired time, the effect in % is determined. 100% means that all of the aphids have been killed; 0% means that none of the aphids have been killed.

[5] = system: green peach aphid (Myzus persicae); assay: Enhancement of activity by ammonium/phosphonium salts with penetration enhancers: Myzus persicae test; type: in vivo; details: 0.8 ppm
Experimental: Enhancement of Activity by Ammonium/Phosphonium Salts in Combination with Penetration Enhancers Myzus persicae Test [table] To prepare an appropriate active ingredient preparation, 1 part by weight of active ingredient is mixed with the stated amount of solvent and emulsifier, and the concentrate is diluted to the desired concentration with water. […] Bell pepper plants (Capsicum annuum) heavily infested by the green peach aphid (Myzus persicae) are treated by spraying to runoff point with the active ingredient preparation of the desired concentration.

[6] = system: cotton aphid (Aphis gossypii); assay: Aphis gossypii test (with ammonium salts and penetration enhancers); type: in vivo; details: for Kill rate/% after 6 days: active ingredient alone, cotton plants
Experimental: Aphis gossypsi Test [table] To prepare an appropriate active ingredient preparation, 1 part by weight of active ingredient is mixed with the stated amounts of solvent and emulsifier, and the concentrate is diluted to the desired concentration with emulsifier-containing water. […] Cotton plants (Gossypium hirsutum) heavily infested by the cotton aphid (Aphis gossypii) are treated by spraying to runoff point with the active ingredient preparation of the desired concentration.

[7] = system: Maize (Arsenal); assay: Container tests with maize-soya-cotton in a greenhouse, cyprosulfamide 1 day before herbicide application; type: in vivo
Experimental: as §1, §2, §3, §4

[8] = system: Maize (Cecilia); type: in vivo
Experimental: as §1, §2, §3, §4

[9] = log P determination by HPLC/LC-MS on reversed-phase column (C 18); type: physicochemical; details: pH 2.7, 0.1% aqueous formic acid and acetonitrile; for chromatographic logP: reversed-phase column (C 18), pH 2.7, LC-MS acidic range, read-out: log P (HCOOH)
Experimental: The log P values reported in the above tables and preparation examples are determined according to EEC Directive 79/831 Annex V.A8 by HPLC (High Performance Liquid Chromatography) on a reversed-phase column (C 18). Temperature: 43° C.
The determination is effected in the acidic range at pH 2.3 with 0.1% aqueous phosphoric acid and acetonitrile as eluent; linear gradient from 10% acetonitrile to 95% acetonitrile.
The determination by LC-MS in the acidic range is effected at pH 2.7 with 0.1% aqueous formic acid and acetonitrile (contains 0.1% formic acid) as the eluent; linear gradient from 10% acetonitrile to 95% acetonitrile.
The determination by LC-MS in the neutral range is effected at pH 7.8 with 0.001 molar aqueous ammonium hydrogen carbonate solution and acetonitrile as the eluent; linear gradient from 10% acetonitrile to 95% acetonitrile.
The calibration is effected with unbranched alkane-2-ones (with 3 to 16 carbon atoms), the log P values of which are known (determination of log P values on the basis of the retention times by linear interpolation between two successive alkanones).

[10] = Summer barley, 28 days after application, 12.5 g a.i./ha
[11] = Summer barley, 28 days after application, 25 g a.i./ha
[12] = 28 days after application, 12.5 g a.i./ha
[13] = 28 days after application, 25 g a.i./ha
[14] = 28 days after application, 50 g a.i./ha
[15] = 28 days after application, 100 g a.i./ha
[16] = Summer barley, 28 days after application, 50 g a.i./ha

For `CCOC1CCCC2(CC1)NC(=O)C(c1c(C)cc(OCC(F)(F)F)cc1CC)=C2O` (stereo not shown) [Example I-1-a-5], the “Summer barley observed (%)” value [1, 10] was 65%, the “Summer barley observed (%)” value [1, 11] was 95% and the “Summer wheat observed (%)” value [1, 12] was 65%.

With `CCc1cc(OCC(F)(F)F)cc(C)c1C1=C(O)C2(CCC3(CC2)OCCO3)NC1=O` [Example I-1-a-6] the “Summer wheat observed (%)” value [1, 12] was 70% and the “Summer wheat observed (%)” value [1, 13] was 85%.

For `CCc1cc(OCC(F)(F)F)cc(C)c1C1=C(O)C2(CCC3(CC2)OCC(C)O3)NC1=O` (stereo not shown) [Example I-1-a-7], the “Summer wheat observed (%)” value [1, 12] was 50%, the “Summer wheat observed (%)” value [1, 13] was 50% and the “Summer wheat observed (%)” value [1, 14] was 70%. For the same compound, the “Summer wheat observed (%)” value [1, 15] was 70%.

With `CCc1cc(OCC(F)(F)F)cc(C)c1C1=C(O)C2(CCC(C)CC2)NC1=O` (stereo not shown) [Example I-1-a-8] the “Summer wheat observed (%)” value [1, 12] was 98%, the “28 days after application Maize (Aventura) observed (%)” value (from here on “28 days … (Aventura) observed (%)”) ([2]; 12.5 g a.i./ha) was 35% and the “28 days … (Aventura) observed (%)” value ([2]; 25 g a.i./ha) was 60%. For the same compound, the “28 days … (Aventura) observed (%)” value ([2]; 50 g a.i./ha) was 70% and the “Summer wheat observed (%)” value [3] was 65%.

For `CCCOC1CCCC2(C1)NC(=O)C(c1c(C)cc(OCC(F)(F)F)cc1CC)=C2O` (stereo not shown) [Example I-1-a-14], the “Summer wheat observed (%)” value [1, 12] was 93%, the “Summer wheat observed (%)” value [1, 13] was 99% and the “Summer wheat observed (%)” value [1, 14] was 100%.

With `CCCCOC1CCCC2(C1)NC(=O)C(c1c(C)cc(OCC(F)(F)F)cc1CC)=C2O` (stereo not shown) [Example I-1-a-15] the “Summer barley observed (%)” value [1, 10] was 70%, the “Summer barley observed (%)” value [1, 11] was 85% and the “Summer barley observed (%)” value [1, 16] was 97%. The “Summer wheat observed (%)” value [1, 12] was 10%, the “Summer wheat observed (%)” value [1, 13] was 30% and the “Summer wheat observed (%)” value [1, 14] was 40%. The “Summer wheat observed (%)” value [1, 15] was 60%.

For `COCC1CCC2(CC1)NC(=O)C(c1c(C)cc(OCC(F)(F)F)cc1C)=C2O` (stereo not shown) [Example I-1-a-17], the “Summer barley observed (%)” value [1, 16] was 40%, the “Summer barley observed (%)” value ([1]; Summer barley, 28 days after application, 100 g a.i./ha) was 80% and the “Summer barley observed (%)” value ([1]; Summer barley, 28 days after application, 200 g a.i./ha) was 95%.

With `CCCOC1CCCC2(C1)NC(=O)C(c1c(C)cc(OCC(F)(F)F)cc1C)=C2O` (stereo not shown) [Example I-1-a-19] the “Summer barley observed (%)” value [1, 11] was 70%, the “Summer wheat observed (%)” value [1, 12] was 10% and the “Summer wheat observed (%)” value [1, 13] was 20%. The “Summer wheat observed (%)” value [1, 14] was 70% and the “Summer wheat observed (%)” value [1, 15] was 85%.

With `Cc1cc(OCC(F)(F)F)cc(C)c1C1=C(O)C2CCCCN2C1=O` (stereo not shown) [Example I-1-a-20] the “effect in % (aphids killed)” value [4] was at least 80%.

With `COC1CCC2(CC1)NC(=O)C(c1c(C)cc(OCC(F)(F)F)cc1C)=C2O` (stereo not shown) [Example I-1-a-25] the “Kill rate/% after 6 days +AS (1000 ppm)” value ([5]; +AS (1000 ppm)) was 0%, the “Kill rate/% after 6 days +RME (1000 ppm)” value ([5]; +RME (1000 ppm)) was 40% and the “Kill rate/% after 6 days +RME +AS (1000 ppm each)” value (from here on “Kill rate/% … (1000 ppm each)”) ([5]; +RME +AS (1000 ppm each)) was 55%. The “Kill rate/% after 6 days” value ([5]; active ingredient alone, bell pepper plants) was 0%, the “Kill rate/% after 6 days +AS (1000 ppm)” value ([6]; 0.8 ppm) was 35% and the “Kill rate/% after 6 days +RME (1000 ppm)” value ([6]; 0.8 ppm) was 20%. The “Kill rate/% … (1000 ppm each)” value ([6]; 0.8 ppm) was 85%, the “Kill rate/% after 6 days” value ([6]; 0.8 ppm) was 0% and the “Summer wheat observed (%)” value [1, 12] was 70%. For the same compound, the “28 days after application Maize (Arsenal) observed (%)” value (“28 days … (Arsenal) observed (%)” for short) ([7]; 12.5 g a.i./ha) was 5%, the “28 days … (Arsenal) observed (%)” value ([7]; 25 g a.i./ha) was 15% and the “28 days … (Arsenal) observed (%)” value ([7]; 50 g a.i./ha) was 75%. For the same compound, the “28 days … (Arsenal) observed (%)” value ([7]; 100 g a.i./ha) was 100%, the “28 days after application Maize (Cecilia) observed (%)” value (“28 days … (Cecilia) observed (%)” for short) ([8]; 12.5 g a.i./ha) was 0% and the “28 days … (Cecilia) observed (%)” value ([8]; 25 g a.i./ha) was 10%. The “28 days … (Cecilia) observed (%)” value ([8]; 50 g a.i./ha) was 20%, the “28 days … (Cecilia) observed (%)” value ([8]; 100 g a.i./ha) was 35% and the “Summer wheat observed (%)” value [3] was 40%.

With `COC1CCC2(CC1)NC(=O)C(c1c(C)ccc(OCC(F)(F)F)c1C)=C2O` (stereo not shown) [Example I-1-a-29] the “Kill rate/% after 6 days +AS (1000 ppm)” value ([6]; 4 ppm) was 15%, the “Kill rate/% after 6 days +RME (1000 ppm)” value ([6]; 4 ppm) was 80% and the “Kill rate/% … (1000 ppm each)” value ([6]; 4 ppm) was 95%. The “Kill rate/% after 6 days” value ([6]; 4 ppm) was 10%.

With `Cc1ccc(OCC(F)(F)F)c(C)c1C1=C(O)C2(CCOCC2)NC1=O` [Example I-1-a-31] the “Kill rate/% after 6 days +AS (1000 ppm)” value ([6]; 4 ppm) was 10%, the “Kill rate/% after 6 days +RME (1000 ppm)” value ([6]; 4 ppm) was 5% and the “Kill rate/% … (1000 ppm each)” value ([6]; 4 ppm) was 35%. For the same compound, the “Kill rate/% after 6 days” value ([6]; 4 ppm) was 0%.

In the case of `CCc1cc(OCC(F)(F)F)cc(C)c1C1=C(O)C2(CCC(C)(OC)CC2)NC1=O` (stereo not shown) [Example I-1-a-37], the “Summer wheat observed (%)” value [1, 12] is reported as 70%.

With `CO[C@H]1CC[C@]2(CC1)NC(=O)C(c1c(C)cc(OCC(F)(F)F)cc1C)=C2OC(=O)C(C)C` [Example I-1-b-2] the “Summer barley observed (%)” value ([1]; in vivo) was 50%.

With `CCOC(=O)OC1=C(c2c(C)cc(OCC(F)(F)F)cc2C)C(=O)NC12CCCC(OCC)C2` (stereo not shown) [Example I-1-c-2] the “28 days … (Arsenal) observed (%)” value ([7]; 25 g a.i./ha) was 20%, the “28 days … (Arsenal) observed (%)” value ([7]; 50 g a.i./ha) was 20% and the “28 days … (Arsenal) observed (%)” value ([7]; 100 g a.i./ha) was 25%. For the same compound, the “28 days … (Cecilia) observed (%)” value ([8]; 100 g a.i./ha) was 75%.

In the case of `Cc1ccc(OCC(F)(F)F)cc1C1=C(O)C2(CCCC2)OC1=O` [Example I-2-a-1], the “log P (HCOOH)” value ([9]; LC-MS acidic range) is reported as 2.45 and the chromatographic logP [9] is reported as 2.59.

Compound `Cc1ccc(OCC(F)(F)F)cc1C1=C(OC(=O)C(C)(C)C)C2(CCCC2)OC1=O` [Example I-2-b-1] has a chromatographic logP [9] of 4.69.

Work on `CCOC(=O)C1(OC(=O)Cc2c(C)cc(OCC(F)(F)F)cc2C)CCOCC1` [III-1] yielded a chromatographic logP [9] of 3.78.

Work on `Cc1cc(OCC(F)(F)F)cc(C)c1CC(=O)O` [XXXI-1, 2,6-Dimethyl-4-trifluoroethoxyphenylacetic acid] yielded a chromatographic logP [9] of 2.51.
